Patent US8809010B2, “Method for prophylactic treatment of alzheimer's disease using inhibitors of glutaminyl cyclase and glutamate cyclases” (Probiodrug AG, priority 2003, dated 2014)
Where two headings read alike, the source gives them in different places. Values belong to the compound of their own block, whether it stands above or below them. Bridge positions count the residues as written; N and C are the ends. Ends that are not written are not given here. Peptide text beside a SMILES is read from it.

Tests used:
human QC [1] = target: T1, human QC (Homo sapiens, UniProt Q16769); experiment: Continuous spectrophotometric QC assay (glutamate dehydrogenase coupled), substrate kinetics; assay type: biochemical; details: for Ki* (mM): for substrate inhibition;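 as to all read-outs here: initial rates read on a microplate reader at 30 °C, with enzyme activity quantified against an ammonia calibration curve under the same assay conditions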
T1 construct: The cDNA of the mature QC starting with codon 38 was fused in frame with the plasmid encoded 6× histidine tag; 6xHis; made in house; host or cells: Pichia pastoris X33 (pPICZαB, secreted); also E. coli M15 (pQE-31)
Description: The initial velocities were evaluated and the enzymatic activity was determined from a standard curve of ammonia under assay conditions. All samples were measured at 30° C., using either the [sequence]luor Plus or the Sunrise (both from TECAN) reader for microplates. Kinetic data was evaluated using GraFit software.

human QC [2] = target: T1, human QC; experiment: QC inhibitor assay (fluorometric, H-Gln-AMC / H-Gln-βNA, pyroglutamyl aminopeptidase coupled); assay type: biochemical
human QC [3] = target: T1, human QC; details: cited from earlier work
mammalian QC = mammalian QC (Bos taurus, UniProt Q28120); details: cited from earlier work
human QC [4] = target: T1, human QC; experiment: Enzyme inactivation/reactivation procedures; assay type: biochemical; details: 0.5 mM metal ion, 0.5 mM EDTA
human QC [5] = target: T1, human QC; experiment: Qualitative substrate conversion (MALDI-TOF / fluorometric); assay type: biochemical; set-up: key to substrate conversion, determined qualitatively: *: determined qualitatively by MALDI-TOF experiments; details: Human QC, MALDI-TOF
Description: Matrix-assisted laser desorption/ionization mass spectrometry was carried out using the Hewlett-Packard G2025 LD-TOF System with a linear time of flight analyzer. […] Samples (5 μl) were mixed with equal volumes of the matrix solution. For matrix solution we used DHAP/DAHC, prepared by solving 30 mg 2′,6′-dihydroxyacetophenone (Aldrich) and 44 mg diammonium hydrogen citrate (Fluka) in 1 ml acetonitrile/0.1% TFA in water (1/1, v/v). A small volume (≈1 μl) of the matrix-analyte-mixture was transferred to a probe tip and immediately evaporated in a vacuum chamber (Hewlett-Packard G2024A sample prep accessory) to ensure rapid and homogeneous sample crystallization.
In order to further investigate the specificity and selectivity of the QCs, peptides were synthesized comprising either a modified N-terminal glutaminyl residue or a modified amino acid in the second position. […] Due to the cyclization of the glutaminyl residue or its analog, respectively, a mass difference of the substrate and the product of catalysis is detected. In cases of ammonia liberation of one mole per mole of substrate, the conversion was also analyzed quantitatively using the spectrophotometric assay.

human QC [6] = target: T1, human QC; experiment: Long-term Glu1-cyclization of Aβ-derived peptides by recombinant human QC, MALDI-TOF; assay type: biochemical; details: 5 mM inhibitor, pH 5.2 / 6.5
Description: For long-term testing of Glu^1-cyclization, Aβ-derived peptides were incubated in 100 μl 0.1 M sodium acetate buffer, pH 5.2 or 0.1 M Bis-Tris buffer, pH 6.5 at 30° C. Peptides were applied in 0.5 mM [Aβ3-11a] or 0.15 mM [Aβ3-21a] concentrations, and 0.2 U QC was added all 24 hours. In case of Aβ3-21a, the assays contained 1% DMSO. At different times, samples were removed from the assay tube, peptides extracted using ZipTips (Millipore) according to the manufacturer's recommendations, mixed with matrix solution (1:1 v/v) and subsequently the mass spectra recorded. Negative controls did either contain no QC or heat deactivated enzyme.
The QC-catalyzed formation of [pGlu^3]Aβ3-11a and [pGlu^3]Aβ3-21a was investigated at pH 5.2 and 6.5, respectively. If the QC-inhibitor benzimidazole was added to the solution before starting the assay by addition of QC, substrate conversion resulting in [pGlu^3]Aβ3-11a or [pGlu^3]Aβ3-21a was suppressed (FIGS. 15E and F). If QC was boiled before addition, formation of the pGlu-peptides was negligible (FIGS. 15A and B).

[7] = Human QC, 0.05M Tris-HCl, pH 8.0
[8] = Human QC, 0.05M Tris-HCl, pH 8.0, 0.5 M KCl
[9] = recombinant human QC, absence of DMSO
[10] = recombinant human QC, buffer containing 1% DMSO

T1 sequence (Q16769 29-361): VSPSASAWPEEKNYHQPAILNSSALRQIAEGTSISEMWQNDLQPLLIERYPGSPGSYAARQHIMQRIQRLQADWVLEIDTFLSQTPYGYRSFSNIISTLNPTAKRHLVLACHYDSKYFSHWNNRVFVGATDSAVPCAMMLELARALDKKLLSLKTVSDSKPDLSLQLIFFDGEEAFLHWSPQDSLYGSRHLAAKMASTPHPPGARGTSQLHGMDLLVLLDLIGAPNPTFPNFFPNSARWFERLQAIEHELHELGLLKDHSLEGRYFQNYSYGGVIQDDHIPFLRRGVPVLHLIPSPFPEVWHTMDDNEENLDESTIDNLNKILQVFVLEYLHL
mammalian QC, sequence (Q28120 29-361): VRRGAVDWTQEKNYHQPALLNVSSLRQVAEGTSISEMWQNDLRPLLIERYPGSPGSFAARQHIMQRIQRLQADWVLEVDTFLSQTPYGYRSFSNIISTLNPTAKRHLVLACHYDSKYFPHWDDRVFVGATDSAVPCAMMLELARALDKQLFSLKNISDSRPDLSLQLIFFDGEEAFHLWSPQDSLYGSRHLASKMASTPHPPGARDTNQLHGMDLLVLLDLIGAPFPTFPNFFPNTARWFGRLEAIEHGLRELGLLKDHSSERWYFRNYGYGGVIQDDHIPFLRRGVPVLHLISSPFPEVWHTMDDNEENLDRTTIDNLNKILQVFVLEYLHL

kcat (human QC [1]; Human QC): 40.1 ± 0.9 s⁻¹
Compound: C[C@H](NC(=O)[C@@H](N)CCC(N)=O)C(N)=O [H-Gln-Ala-NH2] (H-Gln-Ala-NH2)

kcat (human QC [1]; Human QC): 17.2 ± 0.1 s⁻¹ | Ki* (mM) (human QC [1]; Human QC): n.i.
Compound: CC(C)[C@H](NC(=O)[C@@H](N)CCC(N)=O)C(=O)O [H-Gln-Val-OH] (H-Gln-Val-OH)

inhibition of human QC (human QC [2]): improved binding to the active site
Compound: Cn1ccnc1 [1-methylimidazole]

kcat (human QC [1]; Human QC): 24.7 ± 0.2 s⁻¹ | Ki (mM) (human QC [1]; [7]): n.i. | kcat (human QC [1]; [7]): 21.4 ± 0.3 s⁻¹ | Ki (mM) (human QC [1]; [8]): n.i. | kcat (human QC [1]; [8]): 18.9 ± 0.5 s⁻¹ | Ki* (mM) (human QC [1]; Human QC): n.i.
Compound: NC(=O)CC[C@H](N)C(=O)N[C@@H](CCC(=O)O)C(=O)O [H-Gln-Glu-OH] (H-Gln-Glu-OH)

inhibition of human QC (human QC [2]): improved binding to the active site
Compound: C=Cn1ccnc1 [1-vinylimidazole]

Ki (human QC [2]): 6.1 µM
Compound: S=C(NCCCn1ccnc1)NCc1ccc2c(c1)OCO2 [Example 47]

Compound: Cn1cncc1CCN [3-methyl-4-histamine]
inhibition of human QC (human QC [2]): considerable improvement of efficacy

Compound: c1c[nH]cn1 [imidazole]
inhibition of human QC (human QC [3]): inhibited

kcat (human QC [1]; Human QC): 94 ± 1 s⁻¹ | Ki* (mM) (human QC [1]; Human QC): n.i.
Compound: NC(=O)CC[C@H](N)C(=O)N[C@@H](Cc1ccc(O)cc1)C(=O)O [H-Gln-Tyr-OH] (H-Gln-Tyr-OH)

Compound: NCCc1c[nH]cn1 [L-Histamine]
inhibition of human QC (human QC [2]): about one order of magnitude smaller compared to its acetylated counterpart

kcat (human QC [1]; Human QC): 69.6 ± 0.3 s⁻¹
Compound: NC(=O)CC[C@H](N)C(=O)N[C@@H](CCC(=O)O)C(=O)N1CCC[C@H]1C(N)=O [[Gln^1]-FPP] (H-Gln-Glu-Pro-NH2)

Km (human QC [1]; [9]): 87 ± 3 µM | kcat (s^−1) (human QC [1]; [9]): 55 ± 1^# s^−1 | Km (human QC [1]; [10]): 155 ± 4 µM | kcat (human QC [1]; [10]): 41.4 ± 0.4 s⁻¹
Compound: QFRHDSGYE-NH2 [[Gln^3]Aβ3-11a]

kcat (human QC [1]; Human QC): 5.3 ± 0.1 s⁻¹
Compound: Cc1cc(=O)oc2cc(NC(=O)[C@@H](N)CCC(N)=O)ccc12 [H-Gln-AMC]

Compound: O=C(O)CN(CCN(CC(=O)O)CC(=O)O)CC(=O)O [EDTA]
inhibition of mammalian QC (mammalian QC): did not inhibit

kcat (human QC [1]; Human QC): 60.5 ± 0.7 s⁻¹
Compound: H-QAAAA-NH2 [H-Gln-Ala-Ala-Ala-Ala-NH2]

restoration of QC activity after inactivation (human QC [4]): Near-total restoration
Compound: O=S(=O)([O-])[O-].[Zn+2] [ZnSO4]

Compound: Cc1nc2ccccc2[nH]1 [2-methyl-benzimidazole]
inhibition of human QC (human QC [2]): the inhibition constant drops about one order of magnitude

Ki (human QC [2]): 0.89 µM
Compound: CCOc1ccc(NC(=S)NCCCn2ccnc2)cc1 [Example 27, 1-(3-(1H-imidazol-1-yl)propyl)-3-(4-ethoxyphenyl)thiourea]

substrate conversion, determined qualitatively (human QC [5]): * | Km (human QC [1]; [10]): 19 ± 1 µM | kcat (human QC [1]; [10]): 10.0 ± 0.2 s⁻¹
Compound: [Gln^3]-glucagon (3-29): QC substrate

formation of [pGlu^3]Aβ3-11a or [pGlu^3]Aβ3-21a in presence of inhibitor (human QC [6]): suppressed
Compound: c1ccc2[nH]cnc2c1 [benzimidazole]

kcat (human QC [1]; Human QC): 76.3 ± 0.7 s⁻¹
Compound: C[C@H](NC(=O)[C@H](C)NC(=O)[C@@H](N)CCC(N)=O)C(N)=O [H-Gln-Ala-Ala-NH2] (H-Gln-Ala-Ala-NH2)

kcat (human QC [1]; Human QC): 22.8 ± 0.6 s⁻¹
Compound: H-Gln-cyclo(Nε-Lys-Arg-Pro-Ala-Gly-Phe) (H-QKRPAGF; lactam 2-C; SMILES C[C@@H]1NC(=O)[C@@H]2CCCN2C(=O)[C@H](CCCNC(=N)N)NC(=O)[C@@H](NC(=O)[C@@H](N)CCC(N)=O)CCCCNC(=O)[C@H](Cc2ccccc2)NC(=O)CNC1=O)

kcat (human QC [1]; Human QC): 55.3 ± 1.6 s⁻¹
Compound: H-QAASAA-NH2 [H-Gln-Ala-Ala-Ser-Ala-Ala-NH2]

Compound: c1ccc(Cn2ccnc2)cc1 [1-benzylimidazole]
inhibition of human QC (human QC [2]): one of the most effective QC inhibitors
